Data on one sequence can be found in patent US20070134720A1, “Method of detecting effect of controlling synoviolin activity” (priority 2003, published 2007).

The target of test [1] is T1, synoviolin activity of ubiquitinating P4HA1 (Homo sapiens, UniProt Q86TM6).
T1 construct: comprises a MBP-fused synoviolin that lacks the transmembrane segment (TM) (synoviolin dTM); made in house; host or cells: Escherichia coli
Kind of test: Inhibition of ubiquitination activity using energy transfer of XL665-Eu(K) (HTRF method). To be noted: Eu(K)-labeled ubiquitin, GST-P4HA1 substrate, compared with binding inhibition. The test is classed as biochemical. As for the experimental part: A method of high-throughput screening (HTS) for compounds that inhibit the synoviolin activity of ubiquitinating P4HA1 was investigated. A system was designed in which ubiquitination by Eu(K)-labeled ubiquitin was conducted using P4HA1 expressed as a GST-fused protein as a substrate. When P4HA1 underwent Eu(K)-labeled ubiquitination, energy transfer occurred between an XL665-labeled anti-GST antibody and an Eu(K)-labeled ubiquitin, and fluorescence was detected.
A standard reaction mixture comprising 60 ng MBP-synoviolin-His, 15 ng GST-P4HA1, 15 ng E1 (Boston Biochem), 200 ng His-E2, 6.25 nM Eu(K)-labeled ubiquitin (CIS bio international), 5 mM MgCl2, 2 mM ATP, 1 mM DTT, 0.1% BSA, 0.3% DMSO, and a test compound in 15 μL of a 20 mM HEPES (pH 7.5) solution was prepared using a 384-well plate. After a 30 minute reaction at 37° C., 5 μL of 0.5 M EDTA was added to terminate the reaction. To this was added 5 μL of 20 mM HEPES solution containing an XL665-labeled […] antibody (0.025 μg) and 1 M K, and the mixture was left to stand overnight at room temperature, and the fluorescence was measured using RUBYstar™.
A general note: TR-FRET usually uses a lanthanide donor and a delayed reading to cut background.

For test [2], the target named is T1, synoviolin activity of ubiquitinating P4HA1. Kind of test: Inhibition of ubiquitination activity using ELISA. The class given is biochemical. To be noted: anti-GST capture, anti-ubiquitin detection, OD 450 nm. On the procedure: A 96-well ELISA plate was adsorbed with an anti-GST antibody at 4° C. overnight and then blocked with 5% BSA/PBS solution at room temperature until it was used. The plate was washed twice before use with 300 μL of PBS containing 0.3% BSA (PBSA).
A standard reaction mixture comprising 80 ng MBP-synoviolin-His, 40 ng GST-P4HA1, 15 ng E1, 200 ng His-E2, 5 mM MgCl2, 2 mMATP, 1 mM DTT, 0.1% BSA, 0.3% DMSO, and a test compound in 30 μL of 50 mM HEPES (pH 7.5) solution was prepared in a reaction tube. After a 30 minute reaction at room temperature, 70 μL of a solution containing 70 mM EDTA and 50 mM HEPES was added to terminate the reaction. This (30 μl) was added to a plate previously containing 70 μL PBSA and incubated at room temperature for 1 hour. After washing three times with 300 μL of PBSA, 100 μL of a mouse anti-ubiquitin antibody solution diluted 1:5000 in PBSA was added, and the mixture was incubated at room temperature for 1 hour. After three washes with 300 μL of PBSA, 100 μL of a peroxidase-labeled anti-mouse IgG solution diluted 1:10000 in PBSA was added, and the mixture was incubated at room temperature for 1 hour. […] When a sufficient coloration was observed, 1 M phosphoric acid was added to terminate the reaction, and the optical density at 450 nm was measured.

T1 sequence (Q86TM6 246-617 limits assumed): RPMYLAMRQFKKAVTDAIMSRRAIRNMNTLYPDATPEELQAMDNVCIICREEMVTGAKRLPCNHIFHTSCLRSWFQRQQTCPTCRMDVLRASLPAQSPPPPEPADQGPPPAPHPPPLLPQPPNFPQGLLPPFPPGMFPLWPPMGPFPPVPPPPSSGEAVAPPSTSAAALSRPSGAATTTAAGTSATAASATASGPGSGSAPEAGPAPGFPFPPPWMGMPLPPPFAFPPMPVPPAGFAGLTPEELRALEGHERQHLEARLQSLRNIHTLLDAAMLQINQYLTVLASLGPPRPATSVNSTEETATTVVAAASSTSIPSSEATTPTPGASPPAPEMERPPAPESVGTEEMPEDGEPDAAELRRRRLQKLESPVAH

As to DNVCIICREEMVTGAKRLDCN [SEQ ID NO: 5], the “concentration inhibiting the ubiquitination of P4HA1, relative to that for inhibition of the binding” value in test [1] was 20 times lower. Moreover, the “IC50 of inhibition of the ubiquitination of P4HA1” value in test [2] is 55 µg/mL.
